Like-named read-outs stand apart in the source and are kept apart here.
Assays:
Ba/F3-ETV6-NTRK3 = target: T1, Ba/F3-ETV6-NTRK3 (Homo sapiens, UniProt Q16288); experiment: Ba/F3-ETV6-NTRK3 cells proliferation assay; format: cell-based; settings: 72 h, CellTiter Glo
T1 construct: Ba/F3 cells with TPM3-NTRK1 or ETV6-NTRK3 fusion mutation gene stably overexpressed named Ba/F3-TPM3-NTRK1 and Ba/F3-ETV6-NTRK3; fused on or other part: P41212 (Transcription factor ETV6)
Procedure: (§1) Example 202 Ba/F3-TPM3-NTRK1 and Ba/F3-ETV6-NTRK3 cells proliferation assay
(§2) Cell line: Ba/F3 cells with TPM3-NTRK1 or ETV6-NTRK3 fusion mutation gene stably overexpressed named Ba/F3-TPM3-NTRK1 and Ba/F3-ETV6-NTRK3.
(§3) RPMI 1640 and 10% FBS and 1% PS and 2 ug/mL puromycin.
(§4) b) Collect cell to a 15 mL centrifuged tube, centrifuge at 1000 rpm for 5 min. Discard the supernatant, count, and make the cell density at 1.49×10^4 cells/mL, then place it in a 37° C., 5% CO2 incubator.
(§5) a) The test compound (20 mM stock solution) was diluted to 60 μM with 100% DMSO as starting concentration then 3-fold serial diluted with “9+0” concentrations. in a 96-well dilution plate (Thermo, Cat. No. 249944);
(§6) b) The above compound solution was diluted 1:20 times with culture medium to prepare a 10 fold working solution;
(§7) a) Take cells in log phase growth, centrifuge at 1000 rpm for 5 min, then resuspend the cells with culture medium, then count cells;
(§8) b) Cells were seeded to 96-well cell culture plate with density at 2000 cells/well;
(§9) a) Compounds prepared at step 2 were added to cell plate with 15 μL per well, the final concentrations were 300, 100, 33.33, 11.11, 3.70, 1.23, 0.41, 0.14, 0.05 and 0 nM, and the final concentration of DMSO was 0.5%. The blank control well was a culture medium (0.5% DMSO);
(§10) c) The cells were incubated for an additional 72 h in the incubator.
(§11) a) Remove the 96-well cell culture plate and add 50 μl of CTG reagent (CellTiter Glo kit, promega, Cat #G7573).
(§12) b) Plate was shaked for 2 min and then let it cool for 30 min at room temperature.
(§13) c) The Luminescence signal value was read using a PerkinElmer reader.
(§14) Experimental Data Analysis
(§15) Data were analyzed using GraphPad Prism 6.0 software to obtain a fitted curve of compound activity.
(§16) Fit the Compound IC50 from non-linear regression equation:
(§17) Y=Bottom+(Top-Bottom)/(1+10^((Log IC50-X)×HillSlope));
(§18) X: The log of the concentration of the compound; Y: Luminescence value.

Ba/F3-TPM3-NTRK1 = target: T2, Ba/F3-TPM3-NTRK1 (Homo sapiens, UniProt P04629); experiment: Ba/F3-TPM3-NTRK1 cells proliferation assay; format: cell-based; settings: 72 h, CellTiter Glo
T2 construct: expressed in transfected cells; host or cells: Ba/F3; the other entry of the earlier key: TPM3 (P06753, Tropomyosin alpha-3 chain)
T2 sequence (P04629 510-796 limits assumed): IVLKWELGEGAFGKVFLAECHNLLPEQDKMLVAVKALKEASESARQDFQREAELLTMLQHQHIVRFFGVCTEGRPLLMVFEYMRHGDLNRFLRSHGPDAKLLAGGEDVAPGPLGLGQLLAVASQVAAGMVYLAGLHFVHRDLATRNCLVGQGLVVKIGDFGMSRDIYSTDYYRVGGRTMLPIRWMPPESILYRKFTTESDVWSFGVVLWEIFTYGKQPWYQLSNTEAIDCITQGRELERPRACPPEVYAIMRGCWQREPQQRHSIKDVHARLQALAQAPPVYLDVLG
Procedure: as §1, §2, §3, §4, §5, §6, §7, §8, §9, §10, §11, §12, §13, §14, §15, §16, §17, §18

TrkA kinase = TrkA kinase (Homo sapiens, UniProt P04629); experiment: TrkA kinase assay (mobility shift assay); format: biochemical; settings: read-out: Trk A Kinase IC50
Sequence of TrkA kinase (P04629 33-796): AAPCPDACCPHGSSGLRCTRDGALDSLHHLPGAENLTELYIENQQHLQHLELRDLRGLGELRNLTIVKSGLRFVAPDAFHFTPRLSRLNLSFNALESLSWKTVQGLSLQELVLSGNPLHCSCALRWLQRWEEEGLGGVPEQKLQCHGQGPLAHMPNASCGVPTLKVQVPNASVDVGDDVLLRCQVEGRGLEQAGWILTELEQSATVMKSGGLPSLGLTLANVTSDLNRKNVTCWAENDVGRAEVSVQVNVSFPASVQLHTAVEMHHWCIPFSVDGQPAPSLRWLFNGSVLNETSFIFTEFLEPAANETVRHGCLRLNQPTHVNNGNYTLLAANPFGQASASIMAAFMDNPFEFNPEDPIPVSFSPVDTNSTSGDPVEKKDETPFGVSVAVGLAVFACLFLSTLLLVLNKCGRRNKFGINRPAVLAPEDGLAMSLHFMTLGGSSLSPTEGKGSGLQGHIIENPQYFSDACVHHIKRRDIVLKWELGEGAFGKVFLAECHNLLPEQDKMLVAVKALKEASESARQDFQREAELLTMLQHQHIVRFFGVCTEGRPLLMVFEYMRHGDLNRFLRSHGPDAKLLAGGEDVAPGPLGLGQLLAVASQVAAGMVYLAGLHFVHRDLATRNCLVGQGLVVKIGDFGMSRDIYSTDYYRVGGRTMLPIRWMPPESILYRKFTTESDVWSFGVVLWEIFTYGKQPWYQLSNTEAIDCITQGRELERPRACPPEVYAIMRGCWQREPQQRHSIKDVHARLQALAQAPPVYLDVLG
In short: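 Ten-point compound series was preincubated 10 min at room temperature with TrkA, then FAM-peptide plus ATP added in HEPES pH 7.5/Brij-35 buffer and reacted at 28 °C before EDTA quench.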

[1] = Liver microsomes metabolic stability assay, rat; format: in vitro ADME; settings: rat liver microsomes 0.5 mg/mL, 37° C.
Procedure: (§19) Example 203 Liver Microsomes Metabolic Stability Assay
(§20) Pooled human liver microsomes (Cat. 452117) were purchased from Corning. Pooled male rat liver microsomes (Cat. R1000) and pooled male mouse liver microsomes (Cat. M1000) were purchased from XENOTECH. Microsomes were stored at −80° C.
(§21) 1) Make a master solution containing phosphate buffer, ultra-pure H2O and MgCl2 solution according to Table 14.
(§22) 2) Two separated experiments were performed as follows.
(§23) a) With NADPH: 10 μL of 20 mg/mL liver microsomes and 40 μL of 10 mM NADPH were added to the incubations. The final concentrations of microsomes and NADPH were 0.5 mg/mL and 1 mM, respectively.
(§24) b) Without NADPH: 10 μL of 20 mg/mL liver microsomes and 40 μL of ultra-pure H2O were added to the incubations. The final concentration of microsomes was 0.5 mg/mL.
(§25) 3) The reaction was started with the addition of 4 μL test compounds solutions or control compound solution (verapamil) at the final concentration of 2 μM and carried out at 37° C.
(§26) 4) Aliquots of 50 μL were taken from the reaction solution at 0, 15, 30, 45 and 60 min. The reaction solutions were stopped by the addition of 4 volumes of cold acetonitrile with 1S (100 nM alprazolam, 200 nM caffeine, 200 nM labetalol and 2 μM ketoprofen). Samples were centrifuged at 3,220 g for 40 minutes. Aliquot of 100 μL of the supernatant was mixed with 100 μL of ultra-pure H2O and then used for LC-MS/MS analysis. All experiments were performed in duplicate.
(§27) The slope value, k, was determined by linear regression of the natural logarithm of the remaining percentage of the parent drug vs. incubation time curve.
(§28) The in vitro half-life (in vitro t1/2) was determined from the slope value:
(§29) Conversion of the in vitro t1/2 (in min) into the in vitro intrinsic clearance (in vitro CLint, in μL/min/mg proteins) was done using the following equation (mean of duplicate determinations): […]
(§30) The control compound (verapamil) was included in the assay. Any value of the compounds that was not within the specified limits will be rejected and the experiment will be repeated.

[2] = Liver microsomes metabolic stability assay, mouse; format: in vitro ADME; settings: mouse liver microsomes 0.5 mg/mL, 37° C.
Procedure: as §19, §20, §21, §22, §23, §24, §25, §26, §27, §28, §29, §30

[3] = Liver microsomes metabolic stability assay, human; format: in vitro ADME; settings: human liver microsomes 0.5 mg/mL, 37° C.
Procedure: as §19, §20, §21, §22, §23, §24, §25, §26, §27, §28, §29, §30

T1 sequence (Q16288 whole entry, the tested form may be a part): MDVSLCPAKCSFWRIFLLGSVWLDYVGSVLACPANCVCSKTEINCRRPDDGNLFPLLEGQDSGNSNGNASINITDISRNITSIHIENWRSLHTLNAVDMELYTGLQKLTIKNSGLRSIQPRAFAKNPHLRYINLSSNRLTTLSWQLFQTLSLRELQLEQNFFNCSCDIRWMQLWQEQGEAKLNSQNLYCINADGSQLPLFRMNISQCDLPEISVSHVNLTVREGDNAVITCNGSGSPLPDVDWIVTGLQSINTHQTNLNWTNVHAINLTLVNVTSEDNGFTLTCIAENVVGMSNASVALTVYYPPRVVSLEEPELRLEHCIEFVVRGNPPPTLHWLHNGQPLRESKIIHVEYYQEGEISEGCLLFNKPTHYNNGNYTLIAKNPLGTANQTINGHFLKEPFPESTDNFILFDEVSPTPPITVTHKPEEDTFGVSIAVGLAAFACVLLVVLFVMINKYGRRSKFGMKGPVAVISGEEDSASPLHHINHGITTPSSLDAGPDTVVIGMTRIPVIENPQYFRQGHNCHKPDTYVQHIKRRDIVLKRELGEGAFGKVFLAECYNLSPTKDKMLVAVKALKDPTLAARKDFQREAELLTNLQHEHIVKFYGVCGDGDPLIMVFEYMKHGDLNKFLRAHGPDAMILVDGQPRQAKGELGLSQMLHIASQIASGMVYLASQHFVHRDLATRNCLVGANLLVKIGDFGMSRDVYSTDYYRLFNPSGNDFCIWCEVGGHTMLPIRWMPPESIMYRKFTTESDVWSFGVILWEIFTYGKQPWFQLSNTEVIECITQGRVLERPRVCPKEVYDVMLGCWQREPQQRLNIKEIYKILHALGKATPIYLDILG

| SMILES | IC50 (Ba/F3-ETV6-NTRK3) [nM] | IC50 (Ba/F3-TPM3-NTRK1) [nM] | IC50 (TrkA kinase; class symbols) [nM] | other results |
| --- | --- | --- | --- | --- |
| Fc1ccc(F)c([C@H]2CCCN2c2ccn3ncc(-c4nnc(-c5ccncc5)[nH]4)c3n2)c1 [Compound 8, (R)-5-(2-(2,5-difluorophenyl)pyrrolidin-1-yl)-3-(5-(pyridin-4-yl)-4H-1,2,4-triazol-3-yl)pyrazolo[1,5-a]pyrimidine] | 1.55 | – | – | – |
| Oc1ccc(-c2nnc(-c3cnn4ccc(N5CCC[C@@H]5c5cc(F)ccc5F)nc34)[nH]2)cc1 [Compound 9, (R)-4-(5-(5-(2-(2,5-difluorophenyl)pyrrolidin-1-yl)pyrazolo[1,5-a]pyrimidin-3-yl)-4H-1,2,4-triazol-3-yl)phenol] | 2.11 | 2.05 | 10 to 50 | – |
| Fc1ccc(F)c([C@H]2CCCN2c2ccn3ncc(-c4nnc(-c5cnccn5)[nH]4)c3n2)c1 [Compound 10, (R)-5-(2-(2,5-difluorophenyl)pyrrolidin-1-yl)-3-(5-(pyrazin-2-yl)-4H-1,2,4-triazol-3-yl)pyrazolo[1,5-a]pyrimidine] | 1.2 | 1.16 | 10 to 50 | – |
| COC(=O)N[C@@H](C)c1nnc(-c2cnn3ccc(N4CCC[C@@H]4c4cc(F)ccc4F)nc23)[nH]1 [Compound 12, methyl ((S)-1-(5-(5-((R)-2-(2,5-difluorophenyl)pyrrolidin-1-yl)pyrazolo[1,5-a]pyrimidin-3-yl)-4H-1,2,4-triazol-3-yl)ethyl)carbamate] | 2.72 | 7.71 | > 50 | – |
| N#Cc1cccc(-c2nnc(-c3cnn4ccc(N5CCC[C@@H]5c5cc(F)ccc5F)nc34)[nH]2)c1 [Compound 13, (R)-3-(5-(5-(2-(2,5-difluorophenyl)pyrrolidin-1-yl)pyrazolo[1,5-a]pyrimidin-3-yl)-4H-1,2,4-triazol-3-yl)benzonitrile] | 1.83 | 0.98 | ≤ 10 | – |
| Fc1ccc(F)c([C@H]2CCCN2c2ccn3ncc(-c4nnc(-c5ccc(C(F)(F)F)nc5)[nH]4)c3n2)c1 [Compound 14, (R)-5-(2-(2,5-difluorophenyl)pyrrolidin-1-yl)-3-(5-(6-(trifluoromethyl)pyridin-3-yl)-4H-1,2,4-triazol-3-yl)pyrazolo[1,5-a]pyrimidine] | 10 | 12.5 | > 50 | – |
| CCOC(=O)c1nnc(-c2cnn3ccc(N4CCC[C@@H]4c4cc(F)ccc4F)nc23)[nH]1 [Compound 16, ethyl (R)-5-(5-(2-(2,5-difluorophenyl)pyrrolidin-1-yl)pyrazolo[1,5-a]pyrimidin-3-yl)-4H-1,2,4-triazole-3-carboxylate] | 4.21 | 9.18 | > 50 | – |
| O=C(O)c1nnc(-c2cnn3ccc(N4CCC[C@@H]4c4cc(F)ccc4F)nc23)[nH]1 [Compound 17, (R)-5-(5-(2-(2,5-difluorophenyl)pyrrolidin-1-yl)pyrazolo[1,5-a]pyrimidin-3-yl)-4H-1,2,4-triazole-3-carboxylic acid] | 3.56 | 4.1 | > 50 | half-life at 2 μM ([1]; male, read-out: t1/2 Rat): 10.4 h; CLint Rat ([1]; 2 μM): 0.00 μL/min/mg proteins; microsomal CLint at 2 μM ([2]; male): 2.23 µL/min/mg; t1/2 Mouse ([2]; 2 μM): ∞; t1/2 Human ([3]; 2 μM): ∞; microsomal CLint at 2 μM [3]: 0.27 µL/min/mg |
| OC1CCC[C@H](c2nnc(-c3cnn4ccc(N5CCC[C@@H]5c5cc(F)ccc5F)nc34)[nH]2)C1 (stereo partly drawn) [Compound 18, (3S)-3-(5-(5-((R)-2-(2,5-difluorophenyl)pyrrolidin-1-yl)pyrazolo[1,5-a]pyrimidin-3-yl)-4H-1,2,4-triazol-3-yl)cyclohexan-1-ol] | 2.83 | 3.81 | 10 to 50 | – |
| Fc1ccc(F)c([C@H]2CCCN2c2ccn3ncc(-c4nnc(C5CCNCC5)[nH]4)c3n2)c1 [Compound 22, (R)-5-(2-(2,5-difluorophenyl)pyrrolidin-1-yl)-3-(5-(piperidin-4-yl)-4H-1,2,4-triazol-3-yl)pyrazolo[1,5-a]pyrimidine] | 2.45 | 2.93 | 10 to 50 | – |
| O=C(O)c1cc2nc(-c3cnn4ccc(N5CCC[C@@H]5c5cc(F)ccc5F)nc34)[nH]c2cc1F [Compound 141, (R)-2-(5-(2-(2,5-difluorophenyl)pyrrolidin-1-yl)pyrazolo[1,5-a]pyrimidin-3-yl)-6-fluoro-1H-benzo[d]imidazole-5-carboxylic acid] | 20.8 | 30.1 | – | IC50 (TrkA kinase; numeric values): 0.3 nM |
| COC(=O)[C@@H]1CCCN1c1cc2[nH]c(-c3cnn4ccc(N5CCC[C@@H]5c5cc(F)ccc5F)nc34)nc2cc1C#N [Compound 166, methyl (5-cyano-2-(5-((R)-2-(2,5-difluorophenyl)pyrrolidin-1-yl)pyrazolo[1,5-a]pyrimidin-3-yl)-1H-benzo[d]imidazol-6-yl)-L-prolinate] | 7.73 | 4.67 | – | IC50 (TrkA kinase; numeric values): 2.5 nM |
| N#Cc1cc2nc(-c3cnn4ccc(N5CCC[C@@H]5c5cc(F)ccc5F)nc34)[nH]c2cc1N1CCC[C@H]1C(=O)O [Compound 167, (5-cyano-2-(5-((R)-2-(2,5-difluorophenyl)pyrrolidin-1-yl)pyrazolo[1,5-a]pyrimidin-3-yl)-1H-benzo[d]imidazol-6-yl)-L-proline] | 19.6 | 13.2 | – | IC50 (TrkA kinase; numeric values): 0.3 nM |

From patent US20210395256A1, “TYROSINE KINASE INHIBITORS, COMPOSITIONS AND METHODS THERE OF” (Betta Pharmaceuticals Co., Ltd., priority 2018, published 2021)
